In patent publication US20240108747A1, “EXTRACELLULAR VESICLE CONJUGATES AND USES THEREOF” (LONZA SALES AG, priority 2019, published 2024):
Starred links: 1 amine or outer side, 2 acyl side, 3 side chain; linkers in the order of their positions; H or OH if unused. Non-standard residues stand in square brackets, D forms with d. Residues, ends and D or L forms follow the SMILES beside them. *: point of attachment. Dolaproine = CO[C@@H]([C@@H]1CCCN1)[C@@H](C)C(=O)O; Hexanoyl(6-maleimido) = O=C1C=CC(=O)N1CCCCCC(=O)*; Dil = CC[C@H](C)[C@H](NC)[C@@H](CC(=O)O)OC; PABC = O=C(OCc1ccc(N[*:1])cc1)[*:2]; X1 = C[C@@H](N*)[C@@H](O)c1ccccc1; Cit = NC(=O)NCCC[C@H](N)C(=O)O; NMeV = CN[C@H](C(=O)O)C(C)C

What was measured:
mouse LPA-1 = mouse LPA-1 (Mus musculus, UniProt P61793); settings: cited from earlier work
Chain of mouse LPA-1 (P61793 whole entry): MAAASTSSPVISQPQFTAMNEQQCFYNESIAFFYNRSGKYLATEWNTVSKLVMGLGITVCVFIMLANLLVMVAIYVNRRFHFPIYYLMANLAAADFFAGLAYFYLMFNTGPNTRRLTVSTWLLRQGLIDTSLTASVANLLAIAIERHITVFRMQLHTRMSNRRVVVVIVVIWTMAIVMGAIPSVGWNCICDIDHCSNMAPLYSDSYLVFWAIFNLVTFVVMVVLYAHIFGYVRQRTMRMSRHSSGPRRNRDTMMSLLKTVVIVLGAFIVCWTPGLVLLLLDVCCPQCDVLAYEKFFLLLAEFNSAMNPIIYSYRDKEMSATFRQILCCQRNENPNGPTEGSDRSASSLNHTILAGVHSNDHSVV

recombinant human LPA-1 = recombinant human LPA-1 (Homo sapiens, UniProt Q92633); settings: cited from earlier work
Chain of recombinant human LPA-1 (Q92633 whole entry): as the sequence (P61793 whole entry) above, with A4I, S8I, Q22P, Y40H, V61I, D193E, H194N, V269I, N331S, N335T counted along it

mouse LPA-1/CHO cells = settings: read-out: IC50, inhibition of LPA-1-induced chemotaxis; cited from earlier work
[1] = tested on: human A2058 melanoma cells; settings: read-out: IC50, inhibition of LPA-1-induced chemotaxis; cited from earlier work
[2] = tested on: LPA-induced histamine release; settings: mice; cited from earlier work
[3] = cited from earlier work
RAW264.7 (RAW) cells = test: MMAE cytotoxicity / cell growth on RAW264.7 cells (IncuCyte); format: cell-based, mouse
Procedure: The dose-response effects of MMAE on RAW cell growth are shown in microphotographs (top), and measurements of cells growth (bottom left), and confluence (bottom right).
MMAE cytotoxicity was assessed on RAW264.7 (RAW) cells. RAW cells are a […] macrophage cell line. 10,000 RAW cells were seeded in each well of a 96 well plate, and cell growth was monitored using an IncuCyte instrument to image cells over a period of approximately 5 days. […] Images show cells after 5 days of treatment with the indicated dose of MMAE or DMSO; growth inhibition is evident from the decreased number of cells after treatment with MMAE, while cell death is indicated by the rounding up of cells (evident in the 10, 100, and 300 nM images). MMAE has a steep dose-response curve.

NLRC4 inflammasome = settings: cited from earlier work
AIM2 inflammasome = settings: cited from earlier work
NLRP1 inflammasome = settings: cited from earlier work
TLR2 signaling = settings: cited from earlier work
NLRP3 = NLRP3 (Sus scrofa, UniProt H2EW08); settings: models for myocardial infarction; cited from earlier work
Chain of NLRP3 (H2EW08 1-1036): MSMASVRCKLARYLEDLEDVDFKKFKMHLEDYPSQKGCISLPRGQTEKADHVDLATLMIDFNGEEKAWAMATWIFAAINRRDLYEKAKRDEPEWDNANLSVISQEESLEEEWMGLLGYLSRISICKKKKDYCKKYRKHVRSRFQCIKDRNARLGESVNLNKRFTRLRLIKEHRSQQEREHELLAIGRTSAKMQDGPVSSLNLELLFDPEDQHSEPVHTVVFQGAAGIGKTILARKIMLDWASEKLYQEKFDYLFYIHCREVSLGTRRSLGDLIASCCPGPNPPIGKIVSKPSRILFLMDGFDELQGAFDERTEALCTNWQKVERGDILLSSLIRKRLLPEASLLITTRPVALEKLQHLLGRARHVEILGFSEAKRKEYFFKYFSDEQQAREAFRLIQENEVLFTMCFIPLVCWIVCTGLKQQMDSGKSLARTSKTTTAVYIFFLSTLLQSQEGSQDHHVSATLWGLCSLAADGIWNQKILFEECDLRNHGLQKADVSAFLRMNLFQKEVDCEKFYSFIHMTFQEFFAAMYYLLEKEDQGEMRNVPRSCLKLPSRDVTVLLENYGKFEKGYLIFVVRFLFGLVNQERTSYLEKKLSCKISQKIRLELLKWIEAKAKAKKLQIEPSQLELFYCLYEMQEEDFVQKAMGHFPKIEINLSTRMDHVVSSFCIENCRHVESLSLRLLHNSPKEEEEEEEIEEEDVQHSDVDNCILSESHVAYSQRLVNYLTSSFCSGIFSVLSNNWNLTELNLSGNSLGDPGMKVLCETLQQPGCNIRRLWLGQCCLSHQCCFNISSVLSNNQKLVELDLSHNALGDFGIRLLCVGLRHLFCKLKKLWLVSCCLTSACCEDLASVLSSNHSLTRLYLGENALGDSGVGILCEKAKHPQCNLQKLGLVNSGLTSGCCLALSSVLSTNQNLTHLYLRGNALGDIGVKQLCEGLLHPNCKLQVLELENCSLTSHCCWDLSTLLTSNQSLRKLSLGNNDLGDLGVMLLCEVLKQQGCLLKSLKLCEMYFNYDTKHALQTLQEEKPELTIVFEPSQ

[4] = Phase 2 study (Palmer 2018); cited from earlier work

SMILES: Cc1noc(-c2ccc(-c3ccc(CC(=O)O)cc3)cc2)c1NC(=O)O[C@H](C)c1ccccc1 [AM095, 1,1′-Biphenyl]-4-acetic acid, 4′-[3-methyl-4-[[[(1R)-1-phenylethoxy]carbonyl]amino]-S-isoxazolyl[ ]-]
- IC50 (mouse LPA-1): 730 nM
- IC50 (recombinant human LPA-1): 980 nM
- IC50 (mouse LPA-1/CHO cells): 780 nM
- IC50 [1]: 230 nM
- ED50, block of LPA-induced histamine release [2]: 8.3 mg/kg
- ED50, reduction of BALF collagen and protein ([3]; in lungs): 10 mg/kg
- macrophage and lymphocyte infiltration induced by bleomycin ([3]; mice): decrease both macrophage and lymphocyte infiltration

SMILES: CC[C@H](C)[C@@H]([C@@H](CC(=O)N1CCC[C@H]1[C@H](OC)[C@@H](C)C(=O)N[C@H](C)[C@@H](O)c1ccccc1)OC)N(C)C(=O)[C@@H](NC(=O)[C@H](C(C)C)N(C)C(=O)OCc1ccc(NC(=O)[C@H](CCCNC(N)=O)NC(=O)[C@@H](NC(=O)CCCCCN2C(=O)C=CC2=O)C(C)C)cc1)C(C)C [vc-MMAE, maleimide-vc-PABC-MMAE] ({Hexanoyl(6-maleimido)}-V[Cit][PABC][NMeV]V[Dil][Dolaproine]-X1)
- fold less toxic than unmodified MMAE (RAW264.7 (RAW) cells; administered to cells as a free drug, FIG. 8A): approximately 100 fold

SMILES: CC(C)(O)c1coc(S(=O)(=O)NC(=O)Nc2c3c(cc4c2CCC4)CCC3)c1 [MCC950, N-[[(1,2,3,5,6,7-hexahydro-s-indacen-4-yl)amino]carbonyl]-4-(1-hydroxy-1-methylethyl)-2-furansulfonamide]
- inhibition of NLRC4 inflammasome (NLRC4 inflammasome): does not inhibit
- inhibition of AIM2 inflammasome (AIM2 inflammasome): does not inhibit
- inhibition of NLRP1 inflammasome (NLRP1 inflammasome): does not inhibit
- inhibition of TLR2 signaling (TLR2 signaling): does not inhibit
- NLRP3-induced IL-1β production (NLRP3): inhibits NLRP3-induced IL-1β production

SMILES: CC[C@H](C)[C@@H]([C@@H](CC(=O)N1CCC[C@H]1[C@H](OC)[C@@H](C)C(=O)N[C@H](C)[C@@H](O)c1ccccc1)OC)N(C)C(=O)[C@@H](NC(=O)[C@@H](NC)C(C)C)C(C)C [MMAE, monomethyl auristatin E] (H-[NMeV]V[Dil][Dolaproine]-X1)
- MMAE concentrations giving potent growth inhibition and cell death (RAW264.7 (RAW) cells; free drug, about 5 days, FIG. 7): above 1.1 nM

SMILES: Cc1noc(-c2ccc(-c3ccc(C4(C(=O)O)CC4)cc3)cc2)c1NC(=O)O[C@H](C)c1ccccc1 [AM152, Cyclopropanecarboxylic acid, 1-[4′-[3-methyl-4-[[[(1R)-1-phenylethoxy]carbonyl]amino]-S-isoxazolyl][1,1′-biphenyl]-4-yl]-]
- toxicity leading to early termination of the study [4]: gall bladder toxicity and early signs of liver toxicity
